Experimental data published in ChEMBL document CHEMBL4425117 (Bioorg Med Chem Lett, 2016).
Each block holds one molecule with its values, some of them ahead of it.

Key:
[1] = target: T1, Endothelin receptor type B (Sus scrofa, UniProt P35463); assay: Displacement of 125I-ET1 from pig ETB receptor transfected in grivet COS7 cells; format: cell-based
T1 sequence (P35463 whole entry): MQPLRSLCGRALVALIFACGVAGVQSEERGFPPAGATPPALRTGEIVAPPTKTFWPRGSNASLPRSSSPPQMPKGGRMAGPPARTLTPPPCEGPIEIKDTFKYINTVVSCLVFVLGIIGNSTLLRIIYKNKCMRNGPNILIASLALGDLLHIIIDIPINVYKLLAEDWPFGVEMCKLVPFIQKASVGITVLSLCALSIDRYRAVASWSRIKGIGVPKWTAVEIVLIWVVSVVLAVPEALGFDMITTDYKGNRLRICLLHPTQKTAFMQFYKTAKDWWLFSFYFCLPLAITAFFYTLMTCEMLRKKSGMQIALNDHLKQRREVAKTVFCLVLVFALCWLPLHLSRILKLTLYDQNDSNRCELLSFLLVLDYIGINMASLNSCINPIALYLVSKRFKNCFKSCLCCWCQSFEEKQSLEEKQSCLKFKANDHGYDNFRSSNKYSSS

[2] = target: T2, Endothelin receptor type B (Rattus norvegicus, UniProt P21451); assay: Displacement of 125I-ET1 from rat aortic ring ETB receptor
T2 sequence (P21451 whole entry): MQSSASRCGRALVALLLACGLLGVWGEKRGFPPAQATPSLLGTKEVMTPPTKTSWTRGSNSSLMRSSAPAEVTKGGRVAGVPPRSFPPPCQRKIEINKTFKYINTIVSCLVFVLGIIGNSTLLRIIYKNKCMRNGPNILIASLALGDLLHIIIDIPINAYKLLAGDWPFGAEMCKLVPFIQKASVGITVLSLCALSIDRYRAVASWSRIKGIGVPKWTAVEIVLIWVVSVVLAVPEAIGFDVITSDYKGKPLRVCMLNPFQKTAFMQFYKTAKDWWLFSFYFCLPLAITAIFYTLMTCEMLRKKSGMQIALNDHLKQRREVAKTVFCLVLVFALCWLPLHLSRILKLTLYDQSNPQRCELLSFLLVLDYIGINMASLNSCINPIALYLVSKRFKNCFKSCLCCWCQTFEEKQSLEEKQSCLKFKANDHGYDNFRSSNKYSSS

[3] = target: T3, Endothelin-1 receptor (Homo sapiens, UniProt P25101); assay: Displacement of 125I-ET1 from human smooth muscle ETA receptor expressed in fall armyworm sf9 cell membranes
T3 sequence (P25101 whole entry): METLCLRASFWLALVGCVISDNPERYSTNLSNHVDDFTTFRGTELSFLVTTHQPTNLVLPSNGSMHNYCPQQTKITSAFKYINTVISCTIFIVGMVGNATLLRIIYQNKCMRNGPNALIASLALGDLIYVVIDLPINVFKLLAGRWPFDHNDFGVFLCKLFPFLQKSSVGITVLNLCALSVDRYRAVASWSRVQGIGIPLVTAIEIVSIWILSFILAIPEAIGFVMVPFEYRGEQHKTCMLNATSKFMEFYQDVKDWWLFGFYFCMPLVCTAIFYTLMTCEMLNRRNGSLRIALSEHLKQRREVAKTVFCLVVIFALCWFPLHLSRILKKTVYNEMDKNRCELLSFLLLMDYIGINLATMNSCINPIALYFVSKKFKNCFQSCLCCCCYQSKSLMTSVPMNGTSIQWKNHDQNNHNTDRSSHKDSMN

[4] = target: T3, Endothelin-1 receptor; assay: Displacement of radioligand from ETA receptor (unknown origin) expressed in fall armyworm sf9 cell membranes
[5] = target: T4, Endothelin receptor type B (Homo sapiens, UniProt P24530); assay: Antagonist activity at human ETB receptor expressed in CHO cells in presence of ET1; format: cell-based
T4 sequence (P24530 whole entry): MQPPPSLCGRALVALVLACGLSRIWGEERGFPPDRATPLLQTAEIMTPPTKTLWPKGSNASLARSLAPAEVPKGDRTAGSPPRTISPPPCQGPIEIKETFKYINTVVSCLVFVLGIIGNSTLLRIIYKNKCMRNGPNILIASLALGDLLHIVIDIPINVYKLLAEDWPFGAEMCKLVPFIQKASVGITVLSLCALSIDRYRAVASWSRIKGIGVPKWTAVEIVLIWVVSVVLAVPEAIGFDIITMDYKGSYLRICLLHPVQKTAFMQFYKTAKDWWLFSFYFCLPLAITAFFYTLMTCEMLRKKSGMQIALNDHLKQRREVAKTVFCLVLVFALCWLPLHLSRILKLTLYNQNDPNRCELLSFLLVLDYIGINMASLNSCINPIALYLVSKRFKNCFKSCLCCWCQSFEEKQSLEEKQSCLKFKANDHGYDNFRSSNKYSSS

[6] = target: T3, Endothelin-1 receptor; assay: Antagonist activity at human ETA receptor expressed in CHO cells in presence of ET1; format: cell-based
[7] = physchem
Description: Dissociation constant, pKa of the compound

[8] = target: T3, Endothelin-1 receptor; assay: Antagonist activity at ETA receptor (unknown origin)
[9] = target: T2, Endothelin receptor type B; assay: Displacement of [125I]-ET1 from ETB receptor in rat cerebellum after 3 hrs by scintillation counting method; format: tissue-based
[10] = target: T3, Endothelin-1 receptor; assay: Displacement of 125I-ET1 from human placenta cell membrane ETA receptor expressed in Baculovirus-infected insect cells
[11] = target: T5, Endothelin-1 receptor (Rattus norvegicus, UniProt P26684); assay: Antagonist activity at rat aortic ring ETA receptor in presence of ET1; settings: read-out: pA2 (converted)
T5 sequence (P26684 whole entry): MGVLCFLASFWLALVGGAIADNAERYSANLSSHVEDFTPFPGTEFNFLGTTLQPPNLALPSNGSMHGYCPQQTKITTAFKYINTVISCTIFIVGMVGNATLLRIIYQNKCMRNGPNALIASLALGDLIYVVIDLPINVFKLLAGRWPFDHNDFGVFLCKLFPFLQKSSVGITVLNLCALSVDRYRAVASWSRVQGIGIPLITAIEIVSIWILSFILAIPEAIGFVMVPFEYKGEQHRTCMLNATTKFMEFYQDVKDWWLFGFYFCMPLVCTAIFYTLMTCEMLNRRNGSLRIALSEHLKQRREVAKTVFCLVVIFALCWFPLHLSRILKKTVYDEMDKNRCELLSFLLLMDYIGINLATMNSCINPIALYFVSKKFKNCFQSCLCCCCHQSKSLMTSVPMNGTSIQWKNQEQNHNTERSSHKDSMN

[12] = target: T5, Endothelin-1 receptor; assay: Displacement of 125I-ET1 from ETA receptor in rat A7R5 cells; format: cell-based
[13] = target: T3, Endothelin-1 receptor; assay: Displacement of [125I]-ET-1 from human ETA receptor expressed in CHO cell membranes after 2 hrs by scintillation counting
[14] = target: T4, Endothelin receptor type B; assay: Displacement of [125I]-ET-1 from human ETB receptor expressed in CHO cell membranes after 2 hrs by scintillation counting
[15] = target: T4, Endothelin receptor type B; assay: Displacement of radioligand from ETB receptor in human placenta cell membranes
[16] = target: T4, Endothelin receptor type B; assay: Antagonist activity at ETB receptor (unknown origin)
[17] = target: T3, Endothelin-1 receptor; assay: Displacement of 125I-ET1 from ETA receptor (unknown origin) expressed in CHO cells; format: cell-based
[18] = target: T3, Endothelin-1 receptor; assay: Antagonist activity at ETA receptor (unknown origin) in presence of ET1
[19] = target: T4, Endothelin receptor type B; assay: Antagonist activity at ETB receptor (unknown origin) in presence of ET1
[20] = Oral bioavailability in dog; format: ADME, organism-based, Canis lupus familiaris; settings: in vivo
[21] = Oral bioavailability in rat at 15 mg/kg; format: ADME, organism-based; settings: in vivo
[22] = Oral bioavailability in dog at 15 mg/kg; format: ADME, organism-based, Canis lupus familiaris; settings: in vivo

Structure (SMILES): CCCNS(=O)(=O)Nc1ncnc(OCCOc2ncc(Br)cn2)c1-c1ccc(Br)cc1
IC50 [6]: 3.4 nM
pKa [7]: 6.2

Structure (SMILES): COc1ccccc1Oc1c(NS(=O)(=O)CCc2ccccc2)nc(-c2ncccn2)nc1OCCO
IC50 [8]: 25 nM

Structure (SMILES): Cc1noc(NS(=O)(=O)c2ccccc2-c2ccc(-c3ncco3)cc2)c1C
Ki [9]: 1900 nM

Structure (SMILES): COc1cccc(Oc2c(NS(=O)(=O)c3ccc(SC)cc3)cc(C(=O)Nc3ccccc3)cc2OCCO)c1
IC50 [10]: > 100000 nM

Structure (SMILES): COCCOc1nc(-c2ncccn2)nc(NS(=O)(=O)CCc2ccccc2)c1Oc1ccccc1OC
IC50 [12]: 3.6 nM

Structure (SMILES): COc1ccccc1Oc1c(NS(=O)(=O)c2ccc(C(C)C)cn2)nc(N2CCOCC2)nc1OCC#CCOC(=O)c1ccccn1
Kb [11]: 20 nM
IC50 [13]: 1 nM
IC50 [14]: 42 nM

Structure (SMILES): COc1ccccc1Oc1c(NS(=O)(=O)c2ccc(C(C)(C)C)cc2)nc(N2CCOCC2)nc1OCCC(=O)Nc1ccccc1C(C)C
IC50 [12]: 63 nM
IC50 [1]: 0.86 nM

Structure (SMILES): COc1ccccc1Oc1c(NS(=O)(=O)/C=C/c2ccccc2)nc(-c2ncccn2)nc1OCCO
IC50 [12]: 1.6 nM

Structure (SMILES): COc1ccccc1Oc1c(NS(=O)(=O)c2ccc(C)cn2)nc(-c2ccncc2)nc1OC [AVOSENTAN]
IC50 [15]: 600 nM
IC50 [17]: 1.4 nM
IC50 [18]: 3.1 nM
IC50 [19]: 1200 nM

Structure (SMILES): COc1ccccc1Oc1c(NS(=O)(=O)c2ccc(C)cn2)nc(-c2ccnc(-c3nnn[nH]3)c2)nc1OCCO [CLAZOSENTAN]
IC50 [15]: 175 nM
IC50 [17]: 1.7 nM

Structure (SMILES): CCc1cc(C2=C(C(=O)O)N(c3ccccc3C(F)(F)F)S(=O)(=O)c3ccccc32)cc2c1OCO2 [FANDOSENTAN]
IC50 [13]: 0.5 nM
bioavailability [20]: 100%

Structure (SMILES): Cc1cc2c(cc1CC(=O)c1sccc1S(=O)(=O)Nc1onc(C)c1Cl)OCO2 [SITAXENTAN]
bioavailability [21]: 60 to 100%
bioavailability [22]: 60 to 100%

Structure (SMILES): COc1ccccc1Oc1c(NS(=O)(=O)c2ccc(C(C)C)cn2)nc(-c2ccnc(-c3nnn[nH]3)c2)nc1OCCO [TEZOSENTAN]
IC50 [15]: 21 nM
IC50 [17]: 18 nM

The remaining lines, values ahead:

IC50 [1]: 41 nM
Structure (SMILES): Cc1ccc(-c2c(NS(=O)(=O)c3ccc(C(C)(C)CO)cc3)ncnc2OCCOc2ncc(Br)cn2)cc1

IC50 [2]: 1000 nM
IC50 [3]: 220 nM
Structure (SMILES): COc1cccc(Oc2c(NS(=O)(=O)c3ccc(C(C)(C)C)cc3)ncnc2OCCO)c1

IC50 [4]: 6800 nM
IC50 [5]: 69 nM
Structure (SMILES): COc1ccc(-c2nc(NS(=O)(=O)c3ccc(C(C)(C)C)cc3)c(Oc3ccccc3OC)c(OC[C@H](O)CO)n2)cc1

IC50 [10]: 1000 nM
Structure (SMILES): Cc1ccc(-c2c(NS(=O)(=O)c3ccc(C(C)(C)C)cc3)ncnc2OCCO)cc1

IC50 [4]: 800 nM
Kb [11]: 126 nM
Structure (SMILES): COc1ccccc1Oc1c(NS(=O)(=O)c2ccc(C(C)(C)C)cc2)nc(-c2ccccc2)nc1OCCO

IC50 [10]: 35 nM
Structure (SMILES): COc1ccc(Cl)c(Oc2c(NS(=O)(=O)c3ccc(C(C)(C)C)cc3)nc(N3CCOCC3)nc2OCCO)c1

IC50 [4]: 10000 nM
IC50 [15]: 8500 nM
Structure (SMILES): O=S(=O)(Nc1ncnc(OCCO)c1-c1ccc(Cl)cc1)c1ccc(Cl)cc1

IC50 [4]: 1500 nM
Kb [11]: 955 nM
Structure (SMILES): COc1ccccc1Oc1c(NS(=O)(=O)c2ccc(C(C)(C)C)cc2)ncnc1OCCO

IC50 [12]: 0.026 nM
Structure (SMILES): CSc1cnc(OCCOc2ncnc(NS(=O)(=O)c3ccc(C(C)(C)C)cc3)c2-c2cc3ccccc3s2)nc1

IC50 [10]: 50 nM
IC50 [8]: 26 nM
IC50 [16]: 914 nM
Structure (SMILES): COc1ccccc1Oc1c(NS(=O)(=O)c2ccc(C(C)C)cc2)nc(C(F)(F)F)nc1OCCO

IC50 [10]: 2000 nM
Structure (SMILES): COc1ccccc1Cc1c(NS(=O)(=O)c2ccc(C(C)(C)C)cc2)ncnc1OCCO

IC50 [4]: 18000 nM
IC50 [15]: 2000 nM
Kb [11]: 1580 nM
Structure (SMILES): O=S(=O)(Nc1ncnc(OCCO)c1-c1ccc(Cl)cc1)c1ccc(C(F)(F)F)cc1

Kb [11]: 39.8 nM
Structure (SMILES): COc1ccccc1Oc1c(NS(=O)(=O)c2ccc(C(C)(C)C)cc2)nc(-c2ncccn2)nc1OCCO [BOSENTAN]
